From BindingDB's records for doi:10.1021/jm990341r (University of Wisconsin-Milwaukee, 2000)
pKi: −log10 of the molar value.

How the values were obtained:
[1] = target: T1, GABA-A receptor; alpha-5/beta-3/gamma-2 (Homo sapiens, UniProt P31644+P18507+P28472); experiment: Binding affinity for human recombinant gamma-aminobutyric-acid (GABA) A receptor alpha-5-beta-3-gamma-2
T1 sequence (P31644 whole entry): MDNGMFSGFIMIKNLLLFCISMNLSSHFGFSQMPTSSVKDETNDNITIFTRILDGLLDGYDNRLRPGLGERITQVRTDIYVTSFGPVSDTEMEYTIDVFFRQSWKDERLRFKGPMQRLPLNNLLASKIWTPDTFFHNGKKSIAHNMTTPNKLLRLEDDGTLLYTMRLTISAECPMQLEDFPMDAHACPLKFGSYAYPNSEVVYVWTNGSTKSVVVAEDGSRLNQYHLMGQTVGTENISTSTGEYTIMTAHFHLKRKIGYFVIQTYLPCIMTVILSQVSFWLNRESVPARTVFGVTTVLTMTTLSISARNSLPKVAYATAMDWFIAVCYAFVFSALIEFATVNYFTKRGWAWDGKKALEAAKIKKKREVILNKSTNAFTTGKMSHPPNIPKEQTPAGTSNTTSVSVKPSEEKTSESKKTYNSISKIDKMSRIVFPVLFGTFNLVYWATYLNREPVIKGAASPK
T1 sequence (P18507 whole entry): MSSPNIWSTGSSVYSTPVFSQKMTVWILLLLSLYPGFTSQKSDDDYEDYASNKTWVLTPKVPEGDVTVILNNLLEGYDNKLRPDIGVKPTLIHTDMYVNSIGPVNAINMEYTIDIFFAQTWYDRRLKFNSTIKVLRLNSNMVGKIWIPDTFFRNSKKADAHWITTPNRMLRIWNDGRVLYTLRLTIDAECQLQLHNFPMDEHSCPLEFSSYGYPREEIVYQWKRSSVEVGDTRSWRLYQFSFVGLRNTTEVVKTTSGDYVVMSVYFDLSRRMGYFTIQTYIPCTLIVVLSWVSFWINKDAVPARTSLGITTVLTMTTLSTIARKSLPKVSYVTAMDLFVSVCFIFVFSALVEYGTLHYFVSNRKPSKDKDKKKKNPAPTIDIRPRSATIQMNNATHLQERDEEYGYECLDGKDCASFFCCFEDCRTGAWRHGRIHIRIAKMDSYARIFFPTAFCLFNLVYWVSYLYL
T1 sequence (P28472 whole entry): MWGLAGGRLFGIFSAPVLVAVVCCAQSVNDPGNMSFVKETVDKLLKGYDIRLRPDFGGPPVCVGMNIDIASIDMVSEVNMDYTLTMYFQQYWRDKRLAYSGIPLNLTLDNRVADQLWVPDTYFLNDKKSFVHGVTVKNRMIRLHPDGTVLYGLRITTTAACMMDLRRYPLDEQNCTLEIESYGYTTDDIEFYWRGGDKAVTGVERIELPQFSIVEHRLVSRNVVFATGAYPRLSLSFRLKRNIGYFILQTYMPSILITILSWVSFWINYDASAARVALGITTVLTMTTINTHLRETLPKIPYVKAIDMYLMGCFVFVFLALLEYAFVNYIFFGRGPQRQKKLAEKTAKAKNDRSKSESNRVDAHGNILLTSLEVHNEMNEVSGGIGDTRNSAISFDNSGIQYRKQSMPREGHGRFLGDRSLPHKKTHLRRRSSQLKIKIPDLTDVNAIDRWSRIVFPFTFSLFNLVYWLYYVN

[2] = target: T2, Gamma-aminobutyric acid receptor subunit alpha-3/beta-3/gamma-2 (Homo sapiens, UniProt P34903+P18507+P28472); experiment: Binding affinity for human recombinant gamma-aminobutyric-acid (GABA) A receptor alpha-3-beta-3-gamma-2
T2 sequence (P34903 whole entry): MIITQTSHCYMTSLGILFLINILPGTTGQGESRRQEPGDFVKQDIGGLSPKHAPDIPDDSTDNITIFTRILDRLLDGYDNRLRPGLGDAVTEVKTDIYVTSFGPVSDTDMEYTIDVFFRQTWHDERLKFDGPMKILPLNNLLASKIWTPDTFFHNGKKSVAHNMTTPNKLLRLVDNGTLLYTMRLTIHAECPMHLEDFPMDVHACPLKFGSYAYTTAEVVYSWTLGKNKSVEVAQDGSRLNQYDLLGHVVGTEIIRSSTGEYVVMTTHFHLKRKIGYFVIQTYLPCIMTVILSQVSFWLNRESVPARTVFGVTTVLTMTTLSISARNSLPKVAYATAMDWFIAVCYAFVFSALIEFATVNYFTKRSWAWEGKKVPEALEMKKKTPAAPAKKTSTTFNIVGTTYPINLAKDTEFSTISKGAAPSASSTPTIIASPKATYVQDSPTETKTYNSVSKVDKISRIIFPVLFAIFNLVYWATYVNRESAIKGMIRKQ
T2 sequence (P18507 whole entry): T1 sequence (P18507 whole entry)
T2 sequence (P28472 whole entry): T1 sequence (P28472 whole entry)

[3] = target: Gamma-aminobutyric acid receptor subunit alpha-6/beta-3/gamma-2 (Homo sapiens, UniProt Q16445+P18507+P28472); experiment: Binding affinity for human recombinant gamma-aminobutyric-acid (GABA) A receptor alpha-6-beta-3-gamma-2
Chain of Gamma-aminobutyric acid receptor subunit alpha-6/beta-3/gamma-2 (Q16445 whole entry, one chain of several): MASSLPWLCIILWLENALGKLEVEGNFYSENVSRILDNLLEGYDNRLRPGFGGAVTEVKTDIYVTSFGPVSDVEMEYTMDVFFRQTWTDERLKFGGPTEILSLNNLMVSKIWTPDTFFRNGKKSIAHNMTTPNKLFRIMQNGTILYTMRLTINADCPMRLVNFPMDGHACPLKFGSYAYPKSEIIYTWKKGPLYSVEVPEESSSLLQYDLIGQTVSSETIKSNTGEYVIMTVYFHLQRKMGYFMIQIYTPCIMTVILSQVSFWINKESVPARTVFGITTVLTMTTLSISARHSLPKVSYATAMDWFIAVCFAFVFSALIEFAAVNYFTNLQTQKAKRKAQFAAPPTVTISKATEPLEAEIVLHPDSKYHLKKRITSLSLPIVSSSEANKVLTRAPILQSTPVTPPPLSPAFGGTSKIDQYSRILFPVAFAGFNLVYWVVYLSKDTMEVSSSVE

[4] = target: T3, GABA-A receptor; alpha-2/beta-3/gamma-2 (Homo sapiens, UniProt P47869+P18507+P28472); experiment: Binding affinity to human recombinant gamma-aminobutyric-acid (GABA) A receptor alpha-2-beta-3-gamma-2
T3 sequence (P47869 whole entry): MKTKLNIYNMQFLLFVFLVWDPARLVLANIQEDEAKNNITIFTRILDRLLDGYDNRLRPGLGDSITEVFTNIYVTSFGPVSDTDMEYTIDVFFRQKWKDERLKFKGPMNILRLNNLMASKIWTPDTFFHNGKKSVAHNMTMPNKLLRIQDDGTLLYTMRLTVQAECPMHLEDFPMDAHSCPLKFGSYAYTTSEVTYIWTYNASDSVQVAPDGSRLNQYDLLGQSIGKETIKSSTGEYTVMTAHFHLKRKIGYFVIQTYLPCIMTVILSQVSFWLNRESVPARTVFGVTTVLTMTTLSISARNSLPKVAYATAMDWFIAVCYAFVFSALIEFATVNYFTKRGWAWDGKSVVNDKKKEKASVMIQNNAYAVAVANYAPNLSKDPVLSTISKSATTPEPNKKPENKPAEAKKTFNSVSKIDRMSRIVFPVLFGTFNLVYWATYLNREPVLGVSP
T3 sequence (P18507 whole entry): T1 sequence (P18507 whole entry)
T3 sequence (P28472 whole entry): T1 sequence (P28472 whole entry)

[5] = target: T4, Gamma-aminobutyric acid receptor subunit alpha-1/beta-3/gamma-2 (Homo sapiens, UniProt P14867+P18507+P28472); experiment: Binding affinity for human recombinant gamma-aminobutyric-acid (GABA) A receptor alpha-1-beta-3-gamma-2
T4 sequence (P14867 whole entry): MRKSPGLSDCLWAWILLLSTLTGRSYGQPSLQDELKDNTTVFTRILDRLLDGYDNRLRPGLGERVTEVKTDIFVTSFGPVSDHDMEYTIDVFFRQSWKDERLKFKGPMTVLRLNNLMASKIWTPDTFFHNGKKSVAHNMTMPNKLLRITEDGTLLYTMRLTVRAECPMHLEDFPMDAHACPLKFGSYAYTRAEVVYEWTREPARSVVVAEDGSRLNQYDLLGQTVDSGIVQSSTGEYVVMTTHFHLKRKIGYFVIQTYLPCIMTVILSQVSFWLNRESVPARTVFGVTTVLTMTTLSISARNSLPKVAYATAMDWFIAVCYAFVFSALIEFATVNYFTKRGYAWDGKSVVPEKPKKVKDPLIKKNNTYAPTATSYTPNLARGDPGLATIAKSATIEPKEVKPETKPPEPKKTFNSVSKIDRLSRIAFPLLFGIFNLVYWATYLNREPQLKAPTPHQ
T4 sequence (P18507 whole entry): T1 sequence (P18507 whole entry)
T4 sequence (P28472 whole entry): T1 sequence (P28472 whole entry)

| pKi [2] | pKi [3] | pKi [4] | SMILES | pKi [1] | pKi [5] |
| --- | --- | --- | --- | --- | --- |
| 7.62 | < 5.00 | 7.92 | Clc1ccc2c(c1)[nH]c1c3c4ccccc4nc-3c[nH]c12 | – | – |
| – | < 5.00 | 7.92 | COc1ccc2c(c1)[nH]c1c3c4ccccc4nc-3c[nH]c12 | – | – |
| 8.22 | – | – | CCOC(=O)c1[nH]cc2nc3ccc(OCc4ccccc4)cc3c-2c1COC [6-Benzyloxy-4-methoxymethyl-9H-beta-carboline-3-carboxylic acid ethyl ester] | – | – |
| 7.80 | < 5.00 | 7.92 | c1ccc2c(c1)[nH]c1c[nH]c3c4cccnc4nc-3c12 [7,12-Dihydro-1,5,7,12-tetraaza-indeno[1,2-a]fluorene] | – | – |
| 7.51 | < 5.00 | 7.62 | c1ccc2c(c1)[nH]c1c[nH]c3c4ccncc4nc-3c12 [7,12-Dihydro-2,5,7,12-tetraaza-indeno[1,2-a]fluorene] | – | – |

| SMILES | pKi [2] | pKi [3] | pKi [4] | pKi [1] | pKi [5] |
| --- | --- | --- | --- | --- | --- |
| CCOC(=O)c1[nH]cc2nc3ccccc3c-2c1COC | 8.31 | – | – | 8.00 | – |
| COCc1c(C(=O)OC(C)C)[nH]cc2nc3ccc(OCc4ccccc4)cc3c1-2 [6-Benzyloxy-4-methoxymethyl-9H-beta-carboline-3-carboxylic acid isopropyl ester(Abecarnil)] | – | < 6.00 | – | – | 7.92 |
